This is an account of results in ChEMBL document CHEMBL1201862, “PubChem BioAssay data set” (2004).

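Five compound concentrations were applied to cells in 96-well plates for 48 hours; endpoints were derived by simple linear interpolation of the resulting dose-response curve. GI50: concentration for 50% inhibition of growth.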 Calls of active or inactive are those of the source. Cut-off read from the data, not from the text of the source: active = GI50 up to about 1.1 µM and inactive = higher.

Some test systems named below: MCF7; RPMI-8226; HCT-116; 786-0; HL-60; COLO 205; HCC 2998; MOLT-4; SNB-75; KM12; HOP-62; UACC-62; NCI-H522; A549; HT-29; MDA-MB-231; MDA-MB-435; UO-31; HOP-92.
Test in all cases: NCI anticancer screen, dose series, 48 h

`CC(=N/NC(N)=S)/C(C)=N/NC(N)=S`: the GI50 in the assay on MCF7, in the assay with RPMI-8226, in the assay on HCT-116, in the assay with 786-0, in the assay with HL-60 and in the assay with COLO 205 was > 100 µM (inactive) each time. For the same compound, the GI50 in the assay with HCC 2998, in the assay on MOLT-4, in the assay on SNB-75, with KM12, in the assay on HOP-62 and in the assay with UACC-62 was > 100 µM (inactive) in each case. For the same compound, the GI50 in the assay on NCI-H522, in the assay on A549, with HT-29, in the assay on MDA-MB-231, with MDA-MB-435 and in the assay with UO-31 was > 100 µM (inactive) throughout.
For `COC1(C)CNCC(C)(C)NC(=O)C(C)(OC)CNCC(C)(C)NC1=O` (configuration not stated), the GI50 with HOP-92, in the assay on RPMI-8226, in the assay on HCT-116, in the assay with 786-0, with HL-60 and in the assay with COLO 205 was > 100 µM (inactive) in each case. Moreover, the GI50 with HCC 2998, in the assay on MOLT-4, with SNB-75, in the assay with KM12, in the assay with HOP-62 and with UACC-62 was > 100 µM (inactive) in each case. Besides, the GI50 with NCI-H522, in the assay on A549, in the assay on HT-29 and in the assay with UO-31 was > 100 µM (inactive) in each case.
Take `O=C(NCCC1CN(C(=O)OCc2ccccc2)c2ccccc21)OCc1ccccc1` (configuration not stated): the GI50 is 60.4 µM (inactive) in the assay with MCF7; > 100 µM (inactive) with HOP-92; > 100 µM (inactive) in the assay on RPMI-8226; 71.9 µM (inactive) in the assay with HCT-116; > 100 µM (inactive) with 786-0; > 100 µM (inactive) in the assay on COLO 205. Moreover, the GI50 in the assay with HCC 2998, in the assay with MOLT-4, with SNB-75, in the assay with KM12, with HOP-62 and with UACC-62 was > 100 µM (inactive) in each case. Further, the GI50 was 90.6 µM (inactive) in the assay with NCI-H522; 85.3 µM (inactive) in the assay with A549; > 100 µM (inactive) with HT-29; > 100 µM (inactive) in the assay on MDA-MB-231; > 100 µM (inactive) in the assay on MDA-MB-435; > 100 µM (inactive) with UO-31.
Turning to `CCN(CC)c1ccc(/N=N/c2ccc(-c3nc4cccnc4s3)cc2)cc1`, the GI50 with HOP-92 is > 100 µM (inactive); in the assay on RPMI-8226, > 100 µM (inactive); in the assay on HCT-116, > 100 µM (inactive); in the assay on 786-0, 45.4 µM (inactive); with HL-60 it was > 100 µM (inactive); in the assay on COLO 205 it was > 100 µM (inactive). The GI50 with HCC 2998 was > 100 µM (inactive); with MOLT-4, > 100 µM (inactive); in the assay on SNB-75 it was 32.8 µM (inactive); in the assay on KM12, > 100 µM (inactive); with HOP-62 it was > 100 µM (inactive); with UACC-62, 97.9 µM (inactive). Besides, the GI50 was > 100 µM (inactive) with NCI-H522, 88.7 µM (inactive) with A549, > 100 µM (inactive) with HT-29 and > 100 µM (inactive) in the assay with UO-31.
As to `CN(C=O)/C=C/c1cc(O)ccc1O`, the GI50 in the assay with HOP-92 was 19.9 µM (inactive); in the assay with RPMI-8226 it was 26.1 µM (inactive); with HCT-116 it was 33 µM (inactive); in the assay with 786-0 it was 18.5 µM (inactive); in the assay with HL-60 it was 14.2 µM (inactive); in the assay on COLO 205, 21.3 µM (inactive). For the same compound, the GI50 in the assay with HCC 2998 is > 63 µM (inactive); in the assay with MOLT-4, 10.8 µM (inactive); in the assay with SNB-75, 21.7 µM (inactive); in the assay on KM12, 63.7 µM (inactive); with HOP-62 it was > 43 µM (inactive); with UACC-62, 31.3 µM (inactive). Also, the GI50 was 4.17 µM (inactive) with NCI-H522, > 78 µM (inactive) in the assay with A549, 32.6 µM (inactive) in the assay with HT-29 and 32 µM (inactive) in the assay on UO-31.
Turning to `CN1CCN(c2n[nH]c(=O)c3c2nnn3Cc2ccccc2)CC1`, the GI50 in the assay on MCF7 is > 100 µM (inactive); in the assay on HOP-92 it was 17.2 µM (inactive); in the assay on RPMI-8226, > 100 µM (inactive); in the assay with HCT-116, > 100 µM (inactive); with 786-0, > 100 µM (inactive); in the assay with HL-60, > 100 µM (inactive). Also, the GI50 in the assay with COLO 205, with HCC 2998, with MOLT-4, in the assay on SNB-75, in the assay with KM12 and in the assay with HOP-62 was > 100 µM (inactive) throughout. In addition, the GI50 in the assay on A549 was > 100 µM (inactive); with HT-29, 38 µM (inactive); with MDA-MB-231 it was > 100 µM (inactive); in the assay on MDA-MB-435, > 100 µM (inactive); in the assay on UO-31 it was 71.6 µM (inactive).
With `COC(CC1(OC)OC(=O)C=C1N)OC` (configuration not stated), the GI50 in the assay on HOP-92, with RPMI-8226, in the assay with HCT-116, in the assay on 786-0, in the assay on HL-60 and with COLO 205 was > 100 µM (inactive) each time. The GI50 was > 100 µM (inactive) in the assay on HCC 2998; > 100 µM (inactive) in the assay with MOLT-4; 76.7 µM (inactive) with SNB-75; > 100 µM (inactive) in the assay on KM12; > 100 µM (inactive) in the assay on HOP-62; > 100 µM (inactive) in the assay with UACC-62. For the same compound, the GI50 with NCI-H522, with A549, in the assay with HT-29 and in the assay on UO-31 was > 100 µM (inactive) each time.
As to `O=C(Nc1nc2ccccc2n1Cc1ccccc1)NC12CC3CC(CC(C3)C1)C2`, the GI50 in the assay on HOP-92 was 23 µM (inactive); in the assay with RPMI-8226, > 100 µM (inactive); in the assay on HCT-116, 30.4 µM (inactive); in the assay with 786-0 it was 24 µM (inactive); in the assay with HL-60, > 100 µM (inactive); in the assay with COLO 205, 48.5 µM (inactive). The GI50 in the assay with HCC 2998 was > 100 µM (inactive); in the assay with MOLT-4, > 100 µM (inactive); with SNB-75 it was 22.4 µM (inactive); with KM12, > 100 µM (inactive); in the assay with HOP-62, 32.6 µM (inactive); in the assay with UACC-62 it was 41.9 µM (inactive). Besides, the GI50 in the assay on NCI-H522 was 44.7 µM (inactive); with A549, 71.9 µM (inactive); in the assay with HT-29 it was > 100 µM (inactive); in the assay on UO-31, > 100 µM (inactive).
In the case of `CCOC(=O)C1=C(c2ccccc2)NC(c2ccccc2)=C(C(=O)OCC)c2c1c(=O)cc[nH]c2=O`, the GI50 in the assay with HOP-92 is 71.6 µM (inactive); with RPMI-8226, 53.1 µM (inactive); with HCT-116 it was > 100 µM (inactive); with 786-0, > 100 µM (inactive); with HL-60, > 100 µM (inactive); in the assay with COLO 205, > 100 µM (inactive). Besides, the GI50 was > 100 µM (inactive) with HCC 2998; 63.1 µM (inactive) with MOLT-4; > 100 µM (inactive) in the assay on SNB-75; > 100 µM (inactive) in the assay with KM12; > 100 µM (inactive) in the assay on HOP-62; 26.4 µM (inactive) with UACC-62. The GI50 is 84.1 µM (inactive) in the assay on NCI-H522, > 100 µM (inactive) with A549, 74.8 µM (inactive) in the assay on HT-29 and > 100 µM (inactive) with UO-31.
Consider `COC(=O)c1cccc2cccc(C(=O)Nc3ccc(C)cc3C)c12`, for which the GI50 in the assay with HOP-92 is 61.8 µM (inactive); with RPMI-8226, 22.5 µM (inactive); with HCT-116, > 100 µM (inactive); in the assay with 786-0, > 100 µM (inactive); with HL-60, 1.08 µM (active); in the assay on COLO 205 it was 69.5 µM (inactive). Besides, the GI50 in the assay with HCC 2998 is > 100 µM (inactive); in the assay on MOLT-4, 48.5 µM (inactive); in the assay with SNB-75 it was > 100 µM (inactive); with KM12, > 100 µM (inactive); in the assay with HOP-62, > 100 µM (inactive); with UACC-62 it was > 100 µM (inactive). Besides, the GI50 in the assay with NCI-H522 is 70.1 µM (inactive); with A549 it was > 100 µM (inactive); in the assay with HT-29 it was 91 µM (inactive); with UO-31 it was > 100 µM (inactive).
Consider `CC(=O)c1ccc(NC(=O)C(=O)C(C(=O)/C=C/c2ccccc2)C2OC(=O)c3ccccc32)cc1` (configuration not stated), for which the GI50 in the assay with HOP-92 was > 100 µM (inactive); with RPMI-8226 it was 54.2 µM (inactive); with HCT-116, > 100 µM (inactive); in the assay on 786-0, > 100 µM (inactive); in the assay with HL-60 it was > 100 µM (inactive); with COLO 205, > 100 µM (inactive). Further, the GI50 is > 100 µM (inactive) in the assay with HCC 2998; 77.4 µM (inactive) in the assay on MOLT-4; > 100 µM (inactive) in the assay on SNB-75; > 100 µM (inactive) in the assay with KM12; > 100 µM (inactive) with HOP-62; > 100 µM (inactive) in the assay with UACC-62. Also, the GI50 with NCI-H522, in the assay on A549, in the assay with HT-29 and with UO-31 was > 100 µM (inactive) throughout.
As for `CCCCCCC(O)C/C=C/CCCCCC/C(C(=O)OC)=C(/O)C(=O)OCC` (configuration not stated), the GI50 in the assay on HOP-92 is > 100 µM (inactive); in the assay on RPMI-8226 it was > 100 µM (inactive); with HCT-116, > 100 µM (inactive); in the assay with 786-0, > 100 µM (inactive); with HL-60, 67.1 µM (inactive); in the assay on COLO 205, > 100 µM (inactive). In addition, the GI50 with HCC 2998 was > 100 µM (inactive); in the assay on MOLT-4, 72.8 µM (inactive); in the assay with SNB-75 it was > 100 µM (inactive); in the assay on KM12, > 100 µM (inactive); in the assay with HOP-62, > 100 µM (inactive); with UACC-62, > 100 µM (inactive). For the same compound, the GI50 in the assay with NCI-H522 was 85.1 µM (inactive); with A549, > 100 µM (inactive); in the assay on HT-29, > 100 µM (inactive); in the assay on UO-31, > 100 µM (inactive).
